Values of other authors, collected in US20110059171A1 (LABORATORIOS SENOSIAIN S.A. DE C.V., priority 2008, published 2011).

Columns and labels:
[1] = in vivo
[2] = system: proteins

Structure (SMILES) | water solubility | excreted without any change in urine [1] | bound to proteins [2]
O=C(c1ccccc1)c1ccc2n1CCC2C(=O)O (racemic) [Ketorolac tromethamine, (+−)-5(benzoyl)-2,3-dihydro-1H-pyrrolizine-1-carboxylic acid tris (hydroxymethyl)methylamine] | highly water-soluble |  | 
O=C(c1ccccc1)c1ccc2n1CCC2C(=O)O (stereo not drawn) [Ketorolac] |  | about 90% | More than 99%
